Results published in ChEMBL document CHEMBL3396949, “Synthesis, biological evaluation and molecular docking study of novel piperidine and piperazine derivatives as multi-targeted agents to treat Alzheimer's disease” (Bioorg Med Chem, 2015).

Experiments:
[1] = target: Acetylcholinesterase (Electrophorus electricus, UniProt O42275); assay: Inhibition of electric eel AChE using acetylthiocholine iodide as substrate incubated for 5 mins by Ellman's method
[2] = target: Cholinesterase (Equus caballus, UniProt P81908); assay: Inhibition of equine serum BChE using butyrylthiocholine iodide as substrate incubated for 5 mins by Ellman's method
[3] = Selectivity ratio of IC50 for equine serum BChE to IC50 for electric eel AChE
[4] = Antioxidant activity assessed as trolox equivalent of AAPH radical scavenging activity at 1 to 10 uM preincubated for 15 mins followed by AAPH challenge measured every min for 80 mins by ORAC-FL assay
[5] = target: Amyloid-beta precursor protein (Homo sapiens) (UniProt P05067); assay: Inhibition of self-mediated amyloid beta (1 to 42) (unknown origin) aggregation at 25 uM after 48 hrs by thioflavin T fluorescence assay relative to control
[6] = target: Amyloid-beta precursor protein (Homo sapiens) (UniProt P05067); assay: Ratio of curcumin to compound for self-mediated amyloid beta (1 to 42) (unknown origin) aggregation at 25 uM after 48 hrs by thioflavin T fluorescence assay relative to control
[7] = target: Acetylcholinesterase (Electrophorus electricus) (UniProt O42275); assay: Ratio of donepezil IC50 to compound IC50 for electric eel AChE using acetylthiocholine iodide as substrate incubated for 5 mins by Ellman's method
Sequence of Acetylcholinesterase (Electrophorus electricus) (O42275 24-633 limits assumed): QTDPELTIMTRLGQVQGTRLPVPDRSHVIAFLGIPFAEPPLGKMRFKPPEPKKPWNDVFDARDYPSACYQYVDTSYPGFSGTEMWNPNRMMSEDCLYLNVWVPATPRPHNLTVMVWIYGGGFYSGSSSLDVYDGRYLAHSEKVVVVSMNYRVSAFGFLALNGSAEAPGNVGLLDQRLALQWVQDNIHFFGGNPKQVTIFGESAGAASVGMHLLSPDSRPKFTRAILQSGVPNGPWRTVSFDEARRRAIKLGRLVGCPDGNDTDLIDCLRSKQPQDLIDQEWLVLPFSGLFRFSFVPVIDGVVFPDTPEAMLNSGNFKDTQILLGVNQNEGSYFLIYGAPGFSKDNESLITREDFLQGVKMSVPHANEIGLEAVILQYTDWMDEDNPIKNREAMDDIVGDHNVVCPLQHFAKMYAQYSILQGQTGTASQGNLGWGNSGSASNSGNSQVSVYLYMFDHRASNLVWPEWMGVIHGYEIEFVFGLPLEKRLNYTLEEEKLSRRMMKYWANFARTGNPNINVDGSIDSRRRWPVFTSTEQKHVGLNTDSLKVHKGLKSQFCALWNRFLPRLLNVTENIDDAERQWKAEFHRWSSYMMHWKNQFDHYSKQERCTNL

Sequence of Amyloid-beta precursor protein (Homo sapiens) (P05067 whole entry): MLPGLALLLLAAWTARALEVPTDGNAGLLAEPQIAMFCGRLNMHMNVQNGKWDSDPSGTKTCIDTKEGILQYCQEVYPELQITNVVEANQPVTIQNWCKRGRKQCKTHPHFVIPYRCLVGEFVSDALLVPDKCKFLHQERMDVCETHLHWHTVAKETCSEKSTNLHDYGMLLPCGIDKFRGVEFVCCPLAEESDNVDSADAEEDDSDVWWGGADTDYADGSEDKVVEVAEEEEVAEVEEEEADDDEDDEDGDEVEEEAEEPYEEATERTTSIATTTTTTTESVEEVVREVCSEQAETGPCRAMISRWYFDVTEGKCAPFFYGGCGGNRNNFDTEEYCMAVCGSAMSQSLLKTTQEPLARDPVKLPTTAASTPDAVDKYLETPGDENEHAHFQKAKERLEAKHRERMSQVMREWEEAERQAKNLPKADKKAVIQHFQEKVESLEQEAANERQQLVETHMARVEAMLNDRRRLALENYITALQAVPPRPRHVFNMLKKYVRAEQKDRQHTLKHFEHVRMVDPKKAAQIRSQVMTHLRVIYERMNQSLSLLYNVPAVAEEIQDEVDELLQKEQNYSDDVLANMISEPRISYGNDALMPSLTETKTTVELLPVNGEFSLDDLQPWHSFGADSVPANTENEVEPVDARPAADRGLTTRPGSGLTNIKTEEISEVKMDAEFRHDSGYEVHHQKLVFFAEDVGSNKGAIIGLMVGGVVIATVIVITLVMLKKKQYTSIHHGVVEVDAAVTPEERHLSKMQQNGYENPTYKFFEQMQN
Sequence of Acetylcholinesterase (O42275 whole entry): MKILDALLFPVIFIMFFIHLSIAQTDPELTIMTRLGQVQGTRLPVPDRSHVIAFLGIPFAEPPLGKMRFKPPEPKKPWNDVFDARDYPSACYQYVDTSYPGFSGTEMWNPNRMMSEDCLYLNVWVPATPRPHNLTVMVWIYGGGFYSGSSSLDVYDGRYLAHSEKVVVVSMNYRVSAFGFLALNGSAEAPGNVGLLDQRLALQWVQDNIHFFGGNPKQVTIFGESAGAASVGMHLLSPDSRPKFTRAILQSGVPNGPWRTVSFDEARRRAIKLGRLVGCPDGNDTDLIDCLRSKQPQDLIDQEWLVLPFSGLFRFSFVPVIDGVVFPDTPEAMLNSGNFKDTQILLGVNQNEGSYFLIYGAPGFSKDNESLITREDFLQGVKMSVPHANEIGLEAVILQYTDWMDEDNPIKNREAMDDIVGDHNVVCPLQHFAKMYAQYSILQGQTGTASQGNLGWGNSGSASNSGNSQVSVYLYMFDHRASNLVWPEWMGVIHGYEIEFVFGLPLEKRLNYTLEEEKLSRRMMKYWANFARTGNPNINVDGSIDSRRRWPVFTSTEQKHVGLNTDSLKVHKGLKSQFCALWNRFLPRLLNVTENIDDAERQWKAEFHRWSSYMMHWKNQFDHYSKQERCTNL
Sequence of Cholinesterase (P81908 whole entry): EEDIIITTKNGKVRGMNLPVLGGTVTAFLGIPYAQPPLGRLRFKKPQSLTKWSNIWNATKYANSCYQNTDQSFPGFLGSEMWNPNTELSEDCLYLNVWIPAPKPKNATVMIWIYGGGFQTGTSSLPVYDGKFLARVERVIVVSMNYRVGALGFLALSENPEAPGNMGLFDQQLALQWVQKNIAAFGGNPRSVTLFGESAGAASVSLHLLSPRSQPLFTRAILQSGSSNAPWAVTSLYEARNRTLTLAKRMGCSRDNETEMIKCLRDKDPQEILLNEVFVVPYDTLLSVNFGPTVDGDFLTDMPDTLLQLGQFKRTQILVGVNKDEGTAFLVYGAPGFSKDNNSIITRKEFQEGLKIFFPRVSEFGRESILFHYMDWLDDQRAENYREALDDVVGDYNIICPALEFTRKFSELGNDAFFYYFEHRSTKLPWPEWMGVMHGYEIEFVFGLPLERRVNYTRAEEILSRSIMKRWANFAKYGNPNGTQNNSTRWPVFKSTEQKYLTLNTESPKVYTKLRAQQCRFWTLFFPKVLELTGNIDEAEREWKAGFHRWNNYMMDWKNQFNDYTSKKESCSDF

| Compound | IC50 [1] [nM] | IC50 [2] [nM] | Ratio IC50 [3] | Activity [4] [equiv] | inhibition [5] [%] | Ratio [6] | Ratio IC50 [7] |
| --- | --- | --- | --- | --- | --- | --- | --- |
| COc1ccc(CNCCN2CCN(Cc3ccccc3)CC2)cc1OC | 682 | 274 | 0.4 | 0.95 | 80.7 | 1.71 |  |
| c1ccc(CN2CCN(CCCNCc3cccnc3)CC2)cc1 | 23.1 | 209 | 9.03 | 0.65 | 63 |  |  |
| COc1cc(CNCCCCN2CCN(C(c3ccccc3)c3ccccc3)CC2)cc(OC)c1OC |  |  |  | 1.63 | 57.3 |  |  |
| COc1ccc(CNCCN2CCN(C(c3ccccc3)c3ccccc3)CC2)cc1OC |  |  |  | 1.77 | 67.6 |  |  |
| COc1ccc(CNCCCCN2CCN(Cc3ccccc3)CC2)cc1OC | 163 | 142 | 0.86 | 0.61 | 67.7 |  |  |
| c1ccc(CC2CCN(CCCNCc3cccnc3)CC2)cc1 | 2.13 | 81.7 | 38.4 | 1.18 | 88.8 | 1.51 | 22 |
| COc1ccc(CNCCCN2CCC(Cc3ccccc3)CC2)cc1OC | 75.3 | 190 | 2.52 | 1.22 | 84.4 | 1.51 |  |
| COc1ccc(CNCCCN2CCN(Cc3ccccc3)CC2)cc1OC | 112 | 331 | 2.94 | 1.4 | 79.7 | 1.71 |  |
| COc1cc(CNCCCN2CCN(C(c3ccccc3)c3ccccc3)CC2)cc(OC)c1OC |  |  |  | 2.47 | 68.2 |  |  |
| c1ccc(CC2CCN(CCNCc3cccnc3)CC2)cc1 | 32.8 | 101 | 3.07 | 1.32 | 84.4 | 1.51 |  |
| COc1cc(CNCCN2CCN(C(c3ccccc3)c3ccccc3)CC2)cc(OC)c1OC |  |  |  | 2.38 | 68.7 |  |  |
| COc1ccc(CNCCCCN2CCC(Cc3ccccc3)CC2)cc1OC | 202 | 49.1 | 0.24 | 1.06 | 80.7 | 1.51 |  |
| COc1cc(CNCCCN2CCN(Cc3ccccc3)CC2)ccc1O | 13.5 | 18.8 | 1.38 | 1.99 | 67.2 |  |  |
| COc1cc(CNCCCCN2CCC(Cc3ccccc3)CC2)ccc1O | 11.5 | 3.87 | 0.33 | 4.45 | 71.3 |  |  |
| COc1cc(CNCCN2CCN(Cc3ccccc3)CC2)cc(OC)c1OC | 96.5 | 75.1 | 0.77 | 2.77 | 75.5 |  |  |
| COc1ccc(CNCCCN2CCN(C(c3ccccc3)c3ccccc3)CC2)cc1OC |  |  |  | 2.21 | 65.6 |  |  |

| Compound | IC50 [1] [nM] | IC50 [2] [nM] | Ratio IC50 [3] | Activity [4] [equiv] | inhibition [5] [%] | Ratio [6] | Ratio IC50 [7] |
| --- | --- | --- | --- | --- | --- | --- | --- |
| COc1cc(CNCCCCN2CCN(Cc3ccccc3)CC2)ccc1O | 136 | 13.9 | 0.1 | 1.64 | 72.4 |  |  |
| COc1cc(CNCCCN2CCC(Cc3ccccc3)CC2)ccc1O | 6.83 | 7.61 | 1.11 | 3.74 | 88 | 1.51 | 7 |
| c1ccc(CC2CCN(CCCCNCc3cccnc3)CC2)cc1 | 7.72 | 34 | 4.4 | 1.59 | 78.6 | 1.51 | 6 |
| COc1ccc(CNCCN2CCC(Cc3ccccc3)CC2)cc1OC | 182 | 77.7 | 0.42 | 0.61 | 54.7 |  |  |
| COc1cc(CNCCN2CCN(C(c3ccccc3)c3ccccc3)CC2)ccc1O |  |  |  | 2.31 | 43.5 |  |  |
| COc1cc(CNCCCN2CCC(Cc3ccccc3)CC2)cc(OC)c1OC | 8.56 | 23.1 | 2.69 | 1.41 | 78.2 | 1.51 |  |
| COc1cc(CNCCCN2CCN(C(c3ccccc3)c3ccccc3)CC2)ccc1O |  |  |  | 2.68 | 54.2 |  |  |
| COc1cc(CNCCCCN2CCC(Cc3ccccc3)CC2)cc(OC)c1OC | 12.8 | 16.7 | 1.3 | 2.45 | 85.4 | 1.51 |  |
| COc1cc(CNCCCN2CCN(Cc3ccccc3)CC2)cc(OC)c1OC | 81.8 | 41.5 | 0.5 | 1.31 | 79.7 | 1.71 |  |
| COc1cc(CNCCCCN2CCN(Cc3ccccc3)CC2)cc(OC)c1OC | 138 | 32.7 | 0.23 | 1.24 | 80.4 | 1.71 |  |
| c1ccc(CN2CCN(CCCCNCc3cccnc3)CC2)cc1 | 134 | 104 | 0.78 | 0.64 | 69.3 |  |  |
| c1ccc(CN2CCN(CCNCc3cccnc3)CC2)cc1 | 140 | 129 | 0.92 | 1.02 | 56.8 |  |  |
| COc1cc(CNCCN2CCC(Cc3ccccc3)CC2)cc(OC)c1OC | 35.8 | 53.4 | 1.48 | 1.38 | 75 |  |  |
| COc1ccc(CNCCCCN2CCN(C(c3ccccc3)c3ccccc3)CC2)cc1OC |  |  |  | 1.35 | 57.8 |  |  |
| COc1cc(CNCCN2CCN(Cc3ccccc3)CC2)ccc1O | 181 | 18.3 | 0.1 | 1.28 | 71.9 |  |  |
| COc1cc(CNCCN2CCC(Cc3ccccc3)CC2)ccc1O | 38.3 | 4.2 | 0.1 | 4.04 | 84.4 | 1.51 |  |
